Assay results published in ChEMBL document CHEMBL1201862, “PubChem BioAssay data set” (2004).
Calls of active or inactive are those of the source.

Key:
Type in all cases: functional
[1] = target: Beta-galactosidase (Escherichia coli, UniProt Q8VNN2); test: beta-galactosidase enzyme inhibitors and activators, dose response, artefact control for CCR6 antagonist project, biochemical, E. coli enzyme, set 3 (AID 504712)
[2] = target: T1, Caspase-3 (Homo sapiens, UniProt P42574); test: SAR Analysis of small molecule inhibitors of Sentrin-specific proteases (SENPs) using a Caspase-3 Selectivity assay. [Related pubchem assays (depositor defined):AID2540, AID2599, AID434973, AID489001]
T1 sequence (P42574 whole entry): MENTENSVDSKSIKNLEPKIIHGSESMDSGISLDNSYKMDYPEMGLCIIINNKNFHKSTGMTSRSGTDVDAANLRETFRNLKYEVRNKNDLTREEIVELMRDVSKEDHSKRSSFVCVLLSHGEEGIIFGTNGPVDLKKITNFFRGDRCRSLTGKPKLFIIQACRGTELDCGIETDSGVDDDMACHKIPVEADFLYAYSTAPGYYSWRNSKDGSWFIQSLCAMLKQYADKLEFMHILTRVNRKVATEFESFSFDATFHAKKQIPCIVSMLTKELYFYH

[3] = target: T2, Sentrin-specific protease 6 (Homo sapiens, UniProt Q9GZR1); test: SAR Analysis of small molecule inhibitors of Sentrin-specific protease 6 (SENP6) using a Luminescent assay. [Related pubchem assays (depositor defined):AID2582, AID2599]
T2 sequence (Q9GZR1 whole entry): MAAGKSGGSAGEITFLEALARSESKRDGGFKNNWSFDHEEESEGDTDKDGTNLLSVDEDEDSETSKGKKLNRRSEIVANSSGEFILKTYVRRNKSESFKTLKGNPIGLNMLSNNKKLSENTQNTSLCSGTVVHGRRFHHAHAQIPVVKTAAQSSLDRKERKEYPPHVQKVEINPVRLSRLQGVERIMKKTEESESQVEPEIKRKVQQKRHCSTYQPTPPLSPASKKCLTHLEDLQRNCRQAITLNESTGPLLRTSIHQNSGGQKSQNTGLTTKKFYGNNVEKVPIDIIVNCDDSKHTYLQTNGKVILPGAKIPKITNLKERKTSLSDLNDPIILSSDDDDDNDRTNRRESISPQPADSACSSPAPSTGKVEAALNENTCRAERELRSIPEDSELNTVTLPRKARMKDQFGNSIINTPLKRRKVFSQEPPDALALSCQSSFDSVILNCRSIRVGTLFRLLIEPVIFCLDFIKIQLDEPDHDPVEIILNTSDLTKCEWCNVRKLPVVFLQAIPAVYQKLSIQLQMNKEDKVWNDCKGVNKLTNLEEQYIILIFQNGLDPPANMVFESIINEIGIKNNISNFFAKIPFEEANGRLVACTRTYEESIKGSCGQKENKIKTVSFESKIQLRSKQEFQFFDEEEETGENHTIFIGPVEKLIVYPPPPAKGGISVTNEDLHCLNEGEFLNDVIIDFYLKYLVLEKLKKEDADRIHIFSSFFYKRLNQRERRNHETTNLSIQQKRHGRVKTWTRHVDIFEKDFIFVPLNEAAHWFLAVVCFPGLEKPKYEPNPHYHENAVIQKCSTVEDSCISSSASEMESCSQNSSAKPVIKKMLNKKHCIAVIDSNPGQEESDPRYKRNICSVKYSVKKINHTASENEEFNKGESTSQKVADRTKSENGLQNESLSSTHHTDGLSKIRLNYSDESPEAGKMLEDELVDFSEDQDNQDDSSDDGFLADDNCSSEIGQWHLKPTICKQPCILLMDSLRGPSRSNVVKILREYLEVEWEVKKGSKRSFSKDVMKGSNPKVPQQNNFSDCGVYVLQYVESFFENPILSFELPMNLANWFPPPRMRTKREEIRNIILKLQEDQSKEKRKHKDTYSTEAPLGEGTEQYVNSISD

[4] = target: T3, Sentrin-specific protease 7 (Homo sapiens, UniProt Q9BQF6); test: SENP7 protease inhibitors, SAR follow-up, biochemical, luminescence (AID 504497)
T3 sequence (Q9BQF6 whole entry): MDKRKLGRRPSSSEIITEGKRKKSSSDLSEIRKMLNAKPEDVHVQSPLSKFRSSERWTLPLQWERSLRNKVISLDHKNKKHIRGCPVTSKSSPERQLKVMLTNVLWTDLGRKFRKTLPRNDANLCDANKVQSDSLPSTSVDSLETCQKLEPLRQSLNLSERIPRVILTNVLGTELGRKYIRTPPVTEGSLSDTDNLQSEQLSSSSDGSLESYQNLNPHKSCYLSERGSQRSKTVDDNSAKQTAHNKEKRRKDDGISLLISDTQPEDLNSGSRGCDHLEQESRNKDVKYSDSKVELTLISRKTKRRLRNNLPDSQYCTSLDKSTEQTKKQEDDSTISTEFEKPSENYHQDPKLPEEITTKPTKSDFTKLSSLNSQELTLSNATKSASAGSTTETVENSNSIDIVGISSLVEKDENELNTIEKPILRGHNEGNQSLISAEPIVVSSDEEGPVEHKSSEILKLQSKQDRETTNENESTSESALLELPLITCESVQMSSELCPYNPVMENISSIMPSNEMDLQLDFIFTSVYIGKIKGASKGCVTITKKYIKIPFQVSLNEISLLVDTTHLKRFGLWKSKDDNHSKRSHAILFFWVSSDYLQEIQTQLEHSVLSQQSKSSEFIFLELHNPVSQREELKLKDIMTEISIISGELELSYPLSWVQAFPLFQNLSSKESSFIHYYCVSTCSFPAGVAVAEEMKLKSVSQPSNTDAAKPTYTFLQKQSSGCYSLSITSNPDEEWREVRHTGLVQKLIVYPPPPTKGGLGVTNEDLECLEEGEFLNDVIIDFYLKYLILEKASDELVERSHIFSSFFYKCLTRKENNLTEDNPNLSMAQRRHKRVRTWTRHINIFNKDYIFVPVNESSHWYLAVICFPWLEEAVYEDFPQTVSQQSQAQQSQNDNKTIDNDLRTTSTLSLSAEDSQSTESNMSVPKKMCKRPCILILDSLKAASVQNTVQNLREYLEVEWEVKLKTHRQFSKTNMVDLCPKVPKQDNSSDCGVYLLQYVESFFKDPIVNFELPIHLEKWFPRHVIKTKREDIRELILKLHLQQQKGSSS

[5] = target: Dual specificity protein kinase CLK2 (Homo sapiens, UniProt P49760)
[6] = target: Focal adhesion kinase 1 (Homo sapiens, UniProt Q05397);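 further: measured as one member of a kinome panel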
[7] = target: Leucine-rich repeat serine/threonine-protein kinase 2 (Homo sapiens, UniProt Q5S007);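 further: value from a broad kinome-wide panel profiling study in which LRRK2 was one of the kinases tested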
[8] = target: Tyrosine-protein kinase Fyn (Homo sapiens, UniProt P06241)
[9] = target: Inhibitor of nuclear factor kappa-B kinase subunit epsilon (Homo sapiens, UniProt Q14164); test: Navigating the Kinome. Panel member name: IKBKE
[10] = target: Leukocyte tyrosine kinase receptor (Homo sapiens, UniProt P29376); test: Navigating the Kinome. Panel member name: LTK
Sequence of Leukocyte tyrosine kinase receptor (P29376 whole entry): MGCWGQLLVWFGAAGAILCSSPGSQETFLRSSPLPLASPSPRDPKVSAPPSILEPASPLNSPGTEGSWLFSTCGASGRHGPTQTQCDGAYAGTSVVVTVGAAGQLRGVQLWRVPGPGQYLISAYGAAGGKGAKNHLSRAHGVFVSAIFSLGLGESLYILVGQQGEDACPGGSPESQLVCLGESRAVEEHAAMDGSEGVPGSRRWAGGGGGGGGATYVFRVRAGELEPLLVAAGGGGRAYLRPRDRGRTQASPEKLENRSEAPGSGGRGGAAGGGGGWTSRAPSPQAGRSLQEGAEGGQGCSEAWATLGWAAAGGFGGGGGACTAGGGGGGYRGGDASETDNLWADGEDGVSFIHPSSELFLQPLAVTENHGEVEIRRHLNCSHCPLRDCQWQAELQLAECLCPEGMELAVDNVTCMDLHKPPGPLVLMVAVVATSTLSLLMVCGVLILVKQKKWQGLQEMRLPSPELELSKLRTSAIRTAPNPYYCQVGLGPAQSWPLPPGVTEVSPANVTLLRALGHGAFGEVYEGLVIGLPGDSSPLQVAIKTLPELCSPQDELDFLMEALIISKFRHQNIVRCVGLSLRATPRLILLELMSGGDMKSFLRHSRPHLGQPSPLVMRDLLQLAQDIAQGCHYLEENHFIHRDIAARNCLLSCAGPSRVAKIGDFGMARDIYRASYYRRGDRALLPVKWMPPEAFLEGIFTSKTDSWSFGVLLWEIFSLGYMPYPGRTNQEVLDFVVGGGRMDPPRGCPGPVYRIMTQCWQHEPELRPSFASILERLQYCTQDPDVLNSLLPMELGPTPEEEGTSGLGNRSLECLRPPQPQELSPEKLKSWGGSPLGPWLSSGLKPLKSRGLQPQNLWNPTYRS

Sequence of Inhibitor of nuclear factor kappa-B kinase subunit epsilon (Q14164 whole entry): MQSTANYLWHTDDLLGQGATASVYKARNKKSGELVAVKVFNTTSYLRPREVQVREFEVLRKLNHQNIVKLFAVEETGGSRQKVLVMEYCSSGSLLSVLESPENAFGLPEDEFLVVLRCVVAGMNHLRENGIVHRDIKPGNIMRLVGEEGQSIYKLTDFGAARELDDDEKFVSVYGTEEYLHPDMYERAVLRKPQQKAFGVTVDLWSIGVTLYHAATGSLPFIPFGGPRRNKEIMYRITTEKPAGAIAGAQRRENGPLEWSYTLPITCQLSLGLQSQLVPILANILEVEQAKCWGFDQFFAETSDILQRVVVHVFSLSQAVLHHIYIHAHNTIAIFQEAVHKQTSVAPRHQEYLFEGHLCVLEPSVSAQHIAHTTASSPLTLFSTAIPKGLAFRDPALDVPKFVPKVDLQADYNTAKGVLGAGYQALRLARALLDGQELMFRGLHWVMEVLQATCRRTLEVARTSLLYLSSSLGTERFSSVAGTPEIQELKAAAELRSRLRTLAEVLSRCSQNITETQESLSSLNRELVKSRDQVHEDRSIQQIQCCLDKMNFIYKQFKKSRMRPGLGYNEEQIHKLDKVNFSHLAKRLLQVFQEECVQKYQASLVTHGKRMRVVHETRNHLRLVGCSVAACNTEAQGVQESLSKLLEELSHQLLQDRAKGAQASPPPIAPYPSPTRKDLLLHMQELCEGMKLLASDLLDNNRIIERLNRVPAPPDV
Sequence of Tyrosine-protein kinase Fyn (P06241 whole entry): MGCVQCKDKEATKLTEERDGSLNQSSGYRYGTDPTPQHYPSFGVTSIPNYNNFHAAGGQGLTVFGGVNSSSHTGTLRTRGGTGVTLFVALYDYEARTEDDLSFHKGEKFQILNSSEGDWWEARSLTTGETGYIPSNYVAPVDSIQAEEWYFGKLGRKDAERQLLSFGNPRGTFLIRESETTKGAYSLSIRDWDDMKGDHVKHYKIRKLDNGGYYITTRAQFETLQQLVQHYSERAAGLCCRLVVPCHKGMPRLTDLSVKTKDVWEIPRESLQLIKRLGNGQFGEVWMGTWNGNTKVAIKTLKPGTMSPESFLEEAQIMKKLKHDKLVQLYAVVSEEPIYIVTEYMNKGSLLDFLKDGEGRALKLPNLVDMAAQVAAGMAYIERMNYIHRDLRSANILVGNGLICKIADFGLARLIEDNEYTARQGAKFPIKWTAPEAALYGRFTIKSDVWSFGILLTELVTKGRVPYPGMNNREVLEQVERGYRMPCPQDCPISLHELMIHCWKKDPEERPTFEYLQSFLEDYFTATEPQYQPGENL
Sequence of Focal adhesion kinase 1 (Q05397 whole entry): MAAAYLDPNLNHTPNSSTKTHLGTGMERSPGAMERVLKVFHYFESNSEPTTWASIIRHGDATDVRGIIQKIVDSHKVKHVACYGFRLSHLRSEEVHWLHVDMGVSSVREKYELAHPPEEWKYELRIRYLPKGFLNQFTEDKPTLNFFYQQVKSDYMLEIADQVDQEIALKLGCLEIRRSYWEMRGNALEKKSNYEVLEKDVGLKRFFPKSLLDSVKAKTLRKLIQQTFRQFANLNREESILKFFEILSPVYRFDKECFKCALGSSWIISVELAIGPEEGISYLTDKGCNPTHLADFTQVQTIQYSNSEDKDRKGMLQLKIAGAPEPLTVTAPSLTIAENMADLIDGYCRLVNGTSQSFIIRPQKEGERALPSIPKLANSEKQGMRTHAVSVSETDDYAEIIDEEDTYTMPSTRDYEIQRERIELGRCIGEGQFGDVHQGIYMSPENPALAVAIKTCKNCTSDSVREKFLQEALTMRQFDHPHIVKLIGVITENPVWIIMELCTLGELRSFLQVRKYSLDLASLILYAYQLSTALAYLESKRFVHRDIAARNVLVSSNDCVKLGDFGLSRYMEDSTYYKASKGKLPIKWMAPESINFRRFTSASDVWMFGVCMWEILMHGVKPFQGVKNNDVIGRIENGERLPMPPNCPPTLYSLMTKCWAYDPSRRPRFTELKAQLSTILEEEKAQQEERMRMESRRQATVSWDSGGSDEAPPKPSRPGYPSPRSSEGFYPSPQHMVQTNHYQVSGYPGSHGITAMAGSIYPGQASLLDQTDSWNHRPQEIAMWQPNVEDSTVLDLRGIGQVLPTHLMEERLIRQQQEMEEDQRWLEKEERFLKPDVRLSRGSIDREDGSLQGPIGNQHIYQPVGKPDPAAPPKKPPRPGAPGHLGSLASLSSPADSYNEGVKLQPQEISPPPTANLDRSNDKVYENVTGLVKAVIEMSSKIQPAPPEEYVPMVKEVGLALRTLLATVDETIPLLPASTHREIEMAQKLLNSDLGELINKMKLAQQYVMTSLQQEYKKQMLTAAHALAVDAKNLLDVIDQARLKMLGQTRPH
Sequence of Dual specificity protein kinase CLK2 (P49760 whole entry): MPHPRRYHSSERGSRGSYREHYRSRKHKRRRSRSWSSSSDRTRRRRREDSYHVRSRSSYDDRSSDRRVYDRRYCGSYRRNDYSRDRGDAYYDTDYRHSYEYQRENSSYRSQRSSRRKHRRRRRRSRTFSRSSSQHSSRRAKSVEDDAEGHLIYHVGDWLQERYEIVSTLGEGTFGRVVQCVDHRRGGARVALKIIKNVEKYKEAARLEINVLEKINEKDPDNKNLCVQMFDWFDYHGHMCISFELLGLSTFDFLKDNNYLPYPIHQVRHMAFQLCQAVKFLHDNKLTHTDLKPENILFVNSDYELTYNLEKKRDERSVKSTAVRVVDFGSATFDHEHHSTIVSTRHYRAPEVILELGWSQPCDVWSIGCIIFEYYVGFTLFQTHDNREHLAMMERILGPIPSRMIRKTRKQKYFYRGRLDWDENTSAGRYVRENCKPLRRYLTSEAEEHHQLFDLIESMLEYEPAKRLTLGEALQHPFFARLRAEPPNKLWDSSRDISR
Sequence of Beta-galactosidase (Q8VNN2 whole entry): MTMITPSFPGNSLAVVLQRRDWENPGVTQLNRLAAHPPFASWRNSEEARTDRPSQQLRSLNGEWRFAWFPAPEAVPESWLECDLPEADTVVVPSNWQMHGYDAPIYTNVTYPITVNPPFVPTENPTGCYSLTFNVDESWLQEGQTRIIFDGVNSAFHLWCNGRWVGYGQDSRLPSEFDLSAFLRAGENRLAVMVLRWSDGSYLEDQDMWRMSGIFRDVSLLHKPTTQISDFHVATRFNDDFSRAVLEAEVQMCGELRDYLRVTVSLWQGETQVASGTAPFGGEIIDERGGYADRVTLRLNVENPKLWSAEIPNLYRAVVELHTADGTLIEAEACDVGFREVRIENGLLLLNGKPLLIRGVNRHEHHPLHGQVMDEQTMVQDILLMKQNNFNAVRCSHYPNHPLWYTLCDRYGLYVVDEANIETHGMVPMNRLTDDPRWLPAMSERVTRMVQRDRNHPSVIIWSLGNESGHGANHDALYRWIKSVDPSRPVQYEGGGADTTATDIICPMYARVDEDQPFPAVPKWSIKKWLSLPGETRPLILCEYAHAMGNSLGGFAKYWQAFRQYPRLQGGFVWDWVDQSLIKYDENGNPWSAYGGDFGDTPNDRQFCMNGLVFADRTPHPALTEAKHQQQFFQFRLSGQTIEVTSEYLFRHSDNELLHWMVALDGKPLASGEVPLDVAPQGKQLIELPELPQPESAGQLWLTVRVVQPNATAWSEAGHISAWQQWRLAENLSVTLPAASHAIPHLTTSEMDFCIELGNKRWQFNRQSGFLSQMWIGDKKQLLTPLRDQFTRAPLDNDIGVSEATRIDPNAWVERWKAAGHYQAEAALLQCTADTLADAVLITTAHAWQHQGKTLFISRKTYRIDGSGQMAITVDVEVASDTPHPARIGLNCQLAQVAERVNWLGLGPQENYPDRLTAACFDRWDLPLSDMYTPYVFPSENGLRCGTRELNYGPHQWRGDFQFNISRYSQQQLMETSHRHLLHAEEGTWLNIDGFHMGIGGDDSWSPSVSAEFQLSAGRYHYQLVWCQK

Structure (SMILES): O=S(=O)(O)c1cccc2c(N=Nc3ccc(O)c4ncccc34)cccc12
- IC50 [1]: 46.3 µM (inactive)

Structure (SMILES): O=C(NNc1cc(N2CCCC2)nc(N2CCCC2)n1)c1ccc([N+](=O)[O-])cc1
- IC50 [2]: 16.5 µM (active)
- IC50 [3]: 1.43 µM (active)
- IC50 [4]: 2.43 µM (active)

Structure (SMILES): O=C(Cc1cccs1)Nc1nc2ccccc2s1
- Ki [5]: > 3.98 µM (inactive)
- Ki [6]: > 6.31 µM (inactive)
- Ki [7]: 794 nM (active)
- Ki [8]: 5.01 µM (active)
- Ki [9]: > 3.16 µM (inactive)
- Ki [10]: 1 µM (active)
